Measured values published in patent US9751869B2, “LXR modulators” (BRISTOL-MYERS SQUIBB COMPANY, priority 2013, dated 2017).

Molecular target: T1, LXRβ (Homo sapiens, UniProt P55055)
T1 construct: Co-transfection expression plasmids, comprising full-length LXRα (pCMX-h LXRα or LXRβ (pCMX-hLXRβ)); expressed in transfected cells; host or cells: CV-1 African green monkey kidney cells, transient transfection with pCMX-hLXRβ
T1 sequence (P55055 1-460): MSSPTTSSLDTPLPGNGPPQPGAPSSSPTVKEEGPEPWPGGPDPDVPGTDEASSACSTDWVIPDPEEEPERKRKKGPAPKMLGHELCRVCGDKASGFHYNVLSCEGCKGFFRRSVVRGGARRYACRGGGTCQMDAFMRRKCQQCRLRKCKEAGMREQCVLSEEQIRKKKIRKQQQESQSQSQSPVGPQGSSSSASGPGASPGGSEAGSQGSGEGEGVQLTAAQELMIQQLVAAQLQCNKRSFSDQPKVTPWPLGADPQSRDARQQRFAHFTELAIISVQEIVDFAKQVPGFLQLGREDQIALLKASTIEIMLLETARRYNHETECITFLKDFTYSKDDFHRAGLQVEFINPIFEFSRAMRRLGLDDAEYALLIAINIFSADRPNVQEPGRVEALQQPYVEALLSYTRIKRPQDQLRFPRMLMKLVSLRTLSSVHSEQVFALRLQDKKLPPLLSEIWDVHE
T1 sequence (P19793 1-462 partner): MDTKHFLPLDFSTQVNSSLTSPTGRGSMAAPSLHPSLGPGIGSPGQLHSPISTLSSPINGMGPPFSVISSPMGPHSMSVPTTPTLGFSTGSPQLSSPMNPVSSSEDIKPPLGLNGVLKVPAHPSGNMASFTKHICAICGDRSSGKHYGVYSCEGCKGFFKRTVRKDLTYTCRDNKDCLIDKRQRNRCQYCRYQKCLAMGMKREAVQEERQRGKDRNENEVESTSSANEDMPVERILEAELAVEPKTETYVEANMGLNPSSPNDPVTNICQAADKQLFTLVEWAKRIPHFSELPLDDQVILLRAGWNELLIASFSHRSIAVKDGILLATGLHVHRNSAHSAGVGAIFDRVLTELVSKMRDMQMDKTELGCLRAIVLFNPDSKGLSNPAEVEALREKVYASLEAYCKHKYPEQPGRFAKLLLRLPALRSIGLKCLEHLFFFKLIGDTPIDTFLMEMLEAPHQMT
Assay: LXR/LXRE co-transfection assay (luciferase reporter) in CV-1 cells, LXRβ
Type: cell-based
Settings: for EC50: CV-1 cells transfected with pCMX-hLXRβ and LXREx1-Tk-Luciferase, 20 hours incubation, read-out: LXRbeta agonism EC50; for Emax: CV-1 cells, relative to maximum response of high control N-(3-((4-fluorophenyl)-(naphthalene-2-sulfonyl)amino)propyl)-2,2-dimethylpropionamide, read-out: LXRbeta % EFFICACY
Procedure, shortened: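 Luciferase read-out after 20 h compound treatment at 37 °C of CV-1 cells carrying transfected hLXRβ plus one-copy LXRE reporter, endogenous RXR partnering. Sigmoidal fit of 10-point half-log curves (4 wells each) gave EC50; % efficacy versus maximal response of the propionamide reference agonist.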

Structure (SMILES)	EC50 [nM]	Emax [%]
Cc1nc(-c2ccc(OC(F)F)c(F)c2)c(-c2cc(-c3cccc(S(C)(=O)=O)c3)ccc2-c2cc(C(F)(F)CO)nn2C)o1 [Example 76, 2-(5-(3-(4-(4-(difluoromethoxy)-3-fluorophenyl)-2-methyloxazol-5-yl)-3′-(methylsulfonyl)biphenyl-4-yl)-1-methyl-1H-pyrazol-3-yl)-2,2-difluoroethanol]	84	88
Cc1nc(-c2ccc(OC(F)(F)F)cc2)c(-c2cc(-c3cccc(C(C)(C)C(N)=O)c3)ccc2-n2ccc(CC#N)n2)o1 [Example 365, 2-(4′-(3-(cyanomethyl)-1H-pyrazol-1-yl)-3′-(2-methyl-4-(4-(trifluoromethoxy)phenyl)oxazol-5-yl)-[1,1′-biphenyl]-3-yl)-2-methylpropanamide]	424	76
Cc1nc(-c2ccc3c(c2)OC(F)(F)O3)c(-c2cc(-c3cccc(S(C)(=O)=O)c3)ccc2-n2ccc(C(C)(C)O)n2)o1 [Example 357, 2-(1-(3-(4-(2,2-difluorobenzo[d][1,3]dioxol-5-yl)-2-methyloxazol-5-yl)-3′-(methylsulfonyl)-[1,1′-biphenyl]-4-yl)-1H-pyrazol-3-yl)propan-2-ol]	392	41
Cn1nc(C(F)(F)CO)cc1-c1ccc(-c2cc(F)c(CO)c(S(C)(=O)=O)c2)cc1-n1nncc1-c1ccc(OC(F)(F)F)cc1 [Example 26, 2,2-difluoro-2-(5-(3′-fluoro-4′-(hydroxymethyl)-5′-(methylsulfonyl)-3-(5-(4-(trifluoromethoxy)phenyl)-1H-1,2,3-triazol-1-yl)-[1,1′-biphenyl]-4-yl)-1-methyl-1H-pyrazol-3-yl)ethanol]	903	81
Cc1nc(-c2ccc3c(c2)OC(F)(F)O3)c(-c2cc(-c3cccc(S(C)(=O)=O)c3)ccc2-c2cc(C(F)(F)CO)nn2C)o1 [Example 106, 2-(5-(3-(4-(2,2-difluorobenzo[d][1,3]dioxol-5-yl)-2-methyloxazol-5-yl)-3′-(methylsulfonyl)-[1,1′-biphenyl]-4-yl)-1-methyl-1H-pyrazol-3-yl)-2,2-difluoroethanol]	71	64
CC(=O)c1cc(-c2ccc(-c3cc(F)c(CO)c(S(C)(=O)=O)c3)cc2-c2oc(C)nc2-c2ccc3c(c2)OC(F)(F)O3)n(C)n1 [Example 133, 1-(5-(3-(4-(2,2-difluorobenzo[d][1,3]dioxol-5-yl)-2-methyloxazol-5-yl)-3′-fluoro-4′-(hydroxymethyl)-5′-(methylsulfonyl)-[1,1′-biphenyl]-4-yl)-1-methyl-1H-pyrazol-3-yl)ethanone]	12	66
Cc1cc(C(F)(F)F)nn1-c1ccc(-c2cccc(C(C)(C)C(N)=O)c2)cc1-n1nncc1-c1ccc(OC(F)(F)F)cc1 [Example 303, 2-methyl-2-{4′-[5-methyl-3-(trifluoromethyl)-1H-pyrazol-1-yl]-3′-(5-{4-[(trifluoromethyl)oxy]phenyl}-1H-1,2,3-triazol-1-yl)biphenyl-3-yl}propanamide]	825	102
Cc1nc(-c2cc(-c3cc(F)c(CO)c(S(C)(=O)=O)c3)ccc2-n2nc(C(F)(F)F)cc2C)c(-c2ccc(OC(F)F)cc2)o1 [Example 384, (3′-(5-(4-(difluoromethoxy)phenyl)-2-methyloxazol-4-yl)-3-fluoro-4′-(5-methyl-3-(trifluoromethyl)-1H-pyrazol-1-yl)-5-(methylsulfonyl)biphenyl-4-yl)methanol]	15	73
Cc1nc(-c2ccc(OC(F)F)cc2)c(-c2cc(-c3cccc(S(C)(=O)=O)c3)ccc2-n2nc(C(F)(F)F)cc2C)o1 [Example 327, 4-(4-(difluoromethoxy)phenyl)-2-methyl-5-(4-(5-methyl-3-(trifluoromethyl)-1H-pyrazol-1-yl)-3′-(methylsulfonyl)biphenyl-3-yl)oxazole]	27	78
Cn1nc(C(F)(F)F)cc1-c1ccc(-c2cccc(S(C)(=O)=O)c2)cc1-n1nncc1-c1ccc(OC(F)(F)F)cc1 [Example 14, 1-{3′-(methylsulfonyl)-4-[1-methyl-3-(trifluoromethyl)-1H-pyrazol-5-yl]biphenyl-3-yl}-5-{4-[(trifluoromethyl)oxy]phenyl}-1H-1,2,3-triazole]	32	99
Cc1nc(-c2ccc3c(c2)OC(F)(F)O3)c(-c2cc(-c3cc(F)c(CO)c(S(C)(=O)=O)c3)ccc2-c2cc(C(F)(F)C(=O)N(C)C)nn2C)o1 [Example 80, 2-(5-(3-(4-(2,2-difluorobenzo[d][1,3]dioxol-5-yl)-2-methyloxazol-5-yl)-3′-fluoro-4′-(hydroxymethyl)-5′-(methylsulfonyl)biphenyl-4-yl)-1-methyl-1H-pyrazol-3-yl)-2,2-difluoro-N,N-dimethylacetamide]	131	58
Cn1nc(C(=O)NC(C)(C)C)cc1-c1ccc(-c2cccc(S(C)(=O)=O)c2)cc1-n1nncc1-c1ccc(OC(F)(F)F)cc1 [Example 40, N-(1,1-dimethylethyl)-1-methyl-5-[3′-(methylsulfonyl)-3-(5-{4-[(trifluoromethyl)oxy]phenyl}-1H-1,2,3-triazol-1-yl)biphenyl-4-yl]-1H-pyrazole-3-carboxamide]	695	76
Cc1nc(-c2cc(F)c(OC(F)F)c(F)c2)c(-c2cc(-c3cccc(S(C)(=O)=O)c3)ccc2-n2cc(Cl)c(C(F)(F)F)n2)o1 [Example 421]	21	76
Cc1nc(-c2ccc(OC(F)(F)F)cc2)c(-c2cc(-c3cc(F)c(CO)c(S(C)(=O)=O)c3)ccc2-n2ccc(C(C)(C)O)n2)o1 [Example 317, 2-(1-(3′-fluoro-4′-(hydroxymethyl)-3-(2-methyl-4-(4-(trifluoromethoxy)phenyl)oxazol-5-yl)-5′-(methylsulfonyl)biphenyl-4-yl)-1H-pyrazol-3-yl)propan-2-ol]	92	27
Cc1nc(-c2ccc(OC(F)(F)F)cc2)c(-c2cc(-c3cc(F)c(CO)c(S(C)(=O)=O)c3)ccc2-n2cc(C(N)=O)c(C3CC3)n2)o1 [Example 448, 3-cyclopropyl-1-(3′-fluoro-4′-(hydroxymethyl)-3-(2-methyl-4-(4-(trifluoromethoxy)phenyl)oxazol-5-yl)-5′-(methylsulfonyl)-[1,1′-biphenyl]-4-yl)-1H-pyrazole-4-carboxamide]	279	30
Cc1nc(-c2ccc3c(c2)OC(F)(F)O3)c(-c2cc(-c3cccc(S(C)(=O)=O)c3)ccc2-c2cc(C(=O)NC(C)(C)C)nn2C)o1 [Example 113, N-(tert-butyl)-5-(3-(4-(2,2-difluorobenzo[d][1,3]dioxol-5-yl)-2-methyloxazol-5-yl)-3′-(methylsulfonyl)-[1,1′-biphenyl]-4-yl)-1-methyl-1H-pyrazole-3-carboxamide]	344	37
Cn1nc(C(F)(F)C(C)(C)O)cc1-c1ccc(-c2cccc(S(C)(=O)=O)c2)cc1-n1nncc1-c1ccc(Cl)cc1 [Example 31, 1-(5-(3-(5-(4-chlorophenyl)-1H-1,2,3-triazol-1-yl)-3′-(methylsulfonyl)-[1,1′-biphenyl]-4-yl)-1-methyl-1H-pyrazol-3-yl)-1,1-difluoro-2-methylpropan-2-ol]	568	50
